# Experiments:
# [1] = molecular target: T1, Cannabinoid receptor 2 (Homo sapiens, UniProt P34972); assay: Inhibition of 3H-CP55,940 tracer binding to human CB2 receptor expressed in Sf9 insect cell membranes after 1 hr by scintillation counting method
# [2] = molecular target: T2, Cannabinoid receptor 1 (Homo sapiens, UniProt P21554); assay: Agonist activity at human CB1 receptor expressed in HEK293 cell membranes after 1 hr by scintillation counting method
# [3] = Ratio of drug uptake in Sprague-Dawley rat brain to plasma at 3 umol/kg, sc measured after 60 mins by protein precipitation based LC-ESI-MS analysis; format: ADME, organism-based; conditions: 1 h
# [4] = molecular target: T2, Cannabinoid receptor 1; assay: Inhibition of 3H-CP55,940 tracer binding to human CB1 receptor expressed in HEK293 cell membranes after 1 hr by scintillation counting method
# [5] = Ratio of drug uptake in C57BL/6 mouse brain to plasma at 0.5 to 27 umol/kg, sc measured after 60 mins by protein precipitation based LC-ESI-MS analysis; format: ADME, organism-based; conditions: 1 h
# [6] = tested on: Rattus norvegicus; assay: Antiallodynic activity in Sprague-Dawley rat model of L5/L6 spinal nerve ligation-induced neuropathic pain at 2.5 umol/kg by up-and-down method relative to control; format: functional
# [7] = Ratio of drug uptake in C57BL/6 mouse brain to plasma at 1 to 16 umol/kg, sc measured after 60 mins by protein precipitation based LC-ESI-MS analysis; format: ADME, organism-based
# [8] = tested on: Rattus norvegicus; assay: Antiallodynic activity in Sprague-Dawley rat model of L5/L6 spinal nerve ligation-induced neuropathic pain at 8 umol/kg by up-and-down method relative to control; format: functional
# [9] = Ratio of drug uptake in Sprague-Dawley rat brain to plasma at 1 to 8 umol/kg, sc measured after 60 mins by protein precipitation based LC-ESI-MS analysis; format: ADME, organism-based
# [10] = Brain to plasma permeability coefficient, Kp of compound in rat; format: ADME
# [11] = molecular target: T1, Cannabinoid receptor 2; assay: Agonist activity at human CB2 receptor
# [12] = molecular target: T2, Cannabinoid receptor 1; assay: Agonist activity at human CB1 receptor
# T2 sequence (P21554 whole entry): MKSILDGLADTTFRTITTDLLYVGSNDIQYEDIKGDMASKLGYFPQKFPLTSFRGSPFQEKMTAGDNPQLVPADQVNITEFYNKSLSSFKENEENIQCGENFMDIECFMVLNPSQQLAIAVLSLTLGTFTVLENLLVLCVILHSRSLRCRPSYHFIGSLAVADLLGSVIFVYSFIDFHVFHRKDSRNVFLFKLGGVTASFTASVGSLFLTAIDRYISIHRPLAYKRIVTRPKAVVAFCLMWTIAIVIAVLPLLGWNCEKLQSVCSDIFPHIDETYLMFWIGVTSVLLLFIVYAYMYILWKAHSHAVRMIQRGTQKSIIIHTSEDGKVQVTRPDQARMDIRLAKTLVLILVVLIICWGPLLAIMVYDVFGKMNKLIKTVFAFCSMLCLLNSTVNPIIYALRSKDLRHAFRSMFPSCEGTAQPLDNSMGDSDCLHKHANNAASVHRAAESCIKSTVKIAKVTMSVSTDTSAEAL
# T1 sequence (P34972 whole entry): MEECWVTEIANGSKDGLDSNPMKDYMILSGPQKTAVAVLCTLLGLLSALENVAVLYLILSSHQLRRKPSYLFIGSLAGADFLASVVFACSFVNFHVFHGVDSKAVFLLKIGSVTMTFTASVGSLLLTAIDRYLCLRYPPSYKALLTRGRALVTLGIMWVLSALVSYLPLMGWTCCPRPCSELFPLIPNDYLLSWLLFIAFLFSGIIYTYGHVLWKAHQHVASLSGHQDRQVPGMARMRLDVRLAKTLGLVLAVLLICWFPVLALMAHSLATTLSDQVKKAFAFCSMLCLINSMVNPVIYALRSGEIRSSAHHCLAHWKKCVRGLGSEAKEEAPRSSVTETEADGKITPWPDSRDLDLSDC
smiles,measurement,setting,value
CCOc1ccc(Cc2nc3cc(N(C)S(=O)(=O)c4cccs4)ccc3n2CC2CCCCC2)nc1,IC50,[1],1 nM
same,EC50,[2],10 nM
same,Ratio,[3],7%
same,IC50,[4],3.98 nM
same,Ratio,[5],5%
same,Activity,[6],100%
Cc1c(C(=O)c2cccc3ccccc23)c2cccc3c2n1C[C@H](CN1CCOCC1)O3,Kp at 1 h,[7],4.2
same,Activity,[8],100%
same,Kp at 1 h,[9],2.2
CC(C)(C)c1nc2cc(NS(C)(=O)=O)ccc2n1CC1CCC(F)(F)CC1,Kp,[10],0.04
same,Ki,[11],0.871 nM
same,Ki,[12],11.7 nM
